Test results as given in patent US8178506B2, “Oligomeric compounds and compositions for use in modulation of small non-coding RNAs” (Regulus Therapeutics Inc., priority 2003, dated 2012).
In the oligonucleotide strings, read from the 5' end, every base follows the letter of its sugar. An asterisk marks phosphorothioate; unmarked linkages are phosphodiester. Other units and linkages are bracketed, terminal groups are in braces. A string of capitals states the bases alone. e = 2'-O-(2-methoxyethyl) (MOE); [5mC] = 5-methylcytosine; d = 2'-deoxy (DNA)

Tested on: mir-21 pri-miRNA
Assay: mir-21 pri-miRNA expression in HeLa cells (real-time RT-PCR)
Format: cell-based, human
Conditions: 100 nM; for mir-21 pri-miRNA expression % UTC: HeLa cells, real-time RT-PCR; for levels of the mir-21 pri-miRNA molecule: HeLa
Method: In one embodiment, the expression of mir-21 (noted to be expressed at high levels in HeLa cells) was assessed in cells treated with oligomeric compounds. Using the transfection methods previously described, HeLa cells were treated with 100 nM of the uniform 2′-MOE oligomeric compound ISIS Number 327917 (SEQ ID NO: 335) targeting the mir-21 mature miRNA. Total RNA was isolated by lysing cells in 1 mL TRIZOL™ (Invitrogen) using the manufacturer's recommended protocols. […] Real-time RT-PCR analysis was also performed on HeLa cells treated with ISIS 327917 using a primer/probe set specific for the mir-21 pri-miRNA molecule [forward primer=ISIS 339332 ([…]; herein incorporated as SEQ ID NO.: 911), reverse primer-ISIS 339333 (TCGACTGGTGTTGCCATGA; herein incorporated as SEQ ID NO.: 912), and probe=ISIS 339334 ([…]; herein incorporated as SEQ ID NO.: 913)]. Total RNA was quantified using RiboGreen™ RNA quantification reagent (Molecular Probes, Inc. Eugene, Oreg.), expression levels observed for the target were normalized to 5.8S rRNA, and values were expressed relative to an untreated control (UTC).
Using the real-time RT-PCR methods, the expression levels of the mir-21 pri-miRNA were compared in HeLa cells treated with this nested series of uniform 2′-MOE oligomeric compounds, targeting and spanning the entire length of the mir-21 pri-miRNA. ISIS Number 358768 (SEQ ID NO: 918) targets a region flanking the predicted 5′ Drosha cleavage site in the mir-21 pri-miRNA. ISIS Number 358777 (SEQ ID NO: 927) targets a region spanning the 3′ Drosha cleavage site in the mir-21 pri-miRNA. ISIS 358779 (SEQ ID NO: 929) targets a region flanking the predicted 3′ Drosha cleavage site in the mir-21 pri-miRNA. Additionally, oligomeric compounds ISIS 327917 (SEQ ID NO: 335), a uniform 2′-MOE compound targeting the mature mir-21 miRNA, and ISIS 345382 ([…]; SEQ ID NO: 335), a 5-10-7 phosphorothioate 2′-MOE gapmer targeting mir-21, were tested for comparison. Oligomeric compound ISIS 327863 ([…]; herein incorporated as SEQ ID NO: 936), a phosphorothioate 5-10-52′-MOE gapmer, was used as scrambled control. […] Total RNA was isolated by lysing cells in 1 mL TRIZOL™ (Invitrogen) using the manufacturer's recommended protocols. real-time RT-PCR analysis was performed using the primer/probe set specific for the mir-21 pri-miRNA molecule [forward primer=ISIS 339332 (SEQ ID NO.: 911), reverse primer-ISIS 339333 (SEQ ID NO.: 912), and probe=ISIS 339334 (SEQ ID NO.: 913)]. Total RNA was quantified using RiboGreen™ RNA quantification reagent (Molecular Probes, Inc. Eugene, Oreg.), expression levels observed for each target were normalized to 5.8S rRNA, and values were expressed relative to the untreated control (UTC). Effects on expression of the mir-21 pri-miRNA molecule resulting from treatment of HeLa cells with these uniform 2′-MOE oligomeric compounds is expressed as a percentage of RNA levels in untreated control cells.

Row | Substance | mir-21 pri-miRNA expression % UTC [% UTC] | levels of the mir-21 pri-miRNA molecule
1 | 358781 (antisense eT*eA*eA*eT*eG*eT*eT*eT*eA*eA*eA*eT*eG*eA*eG*eA*eA*e[5mC]*eA*eT) [compound 358781] | 122 | –
2 | 358778 (antisense eG*eA*eT*eA*e[5mC]*e[5mC]*eA*eA*eA*eA*eT*eG*eT*e[5mC]*eA*eG*eA*e[5mC]*eA*eG) [compound 358778] | 503 | –
3 | 358780 (antisense eA*eA*e[5mC]*eA*eT*eT*eG*eG*eA*eT*eA*eT*eG*eG*eA*eT*eG*eG*eT*e[5mC]) [compound 358780] | 269 | –
4 | 327863 (antisense ACGCTAGCCTAATAGCGAGG; sugars from the 5' end e5 d10 e5, all phosphorothioate, methylation of C not given here) [compound 327863] | 107 | –
5 | 358769 (eG*eA*eT*eA*eA*eG*e[5mC]*eT*eA*e[5mC]*e[5mC]*e[5mC]*eG*eA*e[5mC]*eA*eA*eG*eG*eT; antisense) [compound 358769] | 265 | –
6 | ISIS 358778: uniform 2′-MOE PS; targets mir-21 pri-miRNA (antisense eG*eA*eT*eA*e[5mC]*e[5mC]*eA*eA*eA*eA*eT*eG*eT*e[5mC]*eA*eG*eA*e[5mC]*eA*eG) | – | stimulate an increase in levels of the mir-21 pri-miRNA molecule
7 | 358774 (antisense e[5mC]*eA*eT*e[5mC]*eG*eA*e[5mC]*eT*eG*eG*eT*eG*eT*eT*eG*e[5mC]*e[5mC]*eA*eT*eG) [compound 358774] | 104 | –
8 | 358785 (antisense eG*eA*eA*eA*eG*eA*eT*eA*e[5mC]*e[5mC]*eA*eA*eA*eA*eT*eG*eT*e[5mC]*eA*eG) [compound 358785] | 257 | –
9 | 358777 (antisense e[5mC]*e[5mC]*eA*eA*eA*eA*eT*eG*eT*e[5mC]*eA*eG*eA*e[5mC]*eA*eG*e[5mC]*e[5mC]*e[5mC]*eA) [compound 358777] | 536 | –
10 | ISIS 358770: uniform 2′-MOE PS; targets mir-21 pri-miRNA (antisense eA*eG*eT*e[5mC]*eT*eG*eA*eT*eA*eA*eG*e[5mC]*eT*eA*e[5mC]*e[5mC]*e[5mC]*eG*eA*e[5mC]) | – | stimulate an increase in levels of the mir-21 pri-miRNA molecule
11 | 358779 (antisense eG*eG*eT*e[5mC]*eA*eG*eA*eT*eG*eA*eA*eA*eG*eA*eT*eA*e[5mC]*e[5mC]*eA*eA) [compound 358779] | 646 | –
12 | 358776 (antisense eT*eG*eT*e[5mC]*eA*eG*eA*e[5mC]*eA*eG*e[5mC]*e[5mC]*e[5mC]*eA*eT*e[5mC]*eG*eA*e[5mC]*eT) [compound 358776] | 367 | –
13 | ISIS 358767: uniform 2′-MOE PS; targets mir-21 pri-miRNA (antisense eG*eG*eA*eG*eA*eT*eG*eT*e[5mC]*eA*e[5mC]*eG*eA*eT*eG*eG*eT*eA*eG*eG) | – | stimulate an increase in levels of the mir-21 pri-miRNA molecule
14 | 358773 (e[5mC]*eT*eG*eG*eT*eG*eT*eT*eG*e[5mC]*e[5mC]*eA*eT*eG*eA*eG*eA*eT*eT*e[5mC]; antisense) [compound 358773] | 148 | –
15 | 358775 (antisense eA*e[5mC]*eA*eG*e[5mC]*e[5mC]*e[5mC]*eA*eT*e[5mC]*eG*eA*e[5mC]*eT*eG*eG*eT*eG*eT*eT) [compound 358775] | 222 | –
16 | ISIS 358772: uniform 2′-MOE PS; targets mir-21 pri-miRNA (antisense eG*eA*eG*eA*eT*eT*e[5mC]*eA*eA*e[5mC]*eA*eG*eT*e[5mC]*eA*eA*e[5mC]*eA*eT*e[5mC]) | – | stimulate an increase in levels of the mir-21 pri-miRNA molecule
17 | 358770 (eA*eG*eT*e[5mC]*eT*eG*eA*eT*eA*eA*eG*e[5mC]*eT*eA*e[5mC]*e[5mC]*e[5mC]*eG*eA*e[5mC]; antisense) [compound 358770] | 250 | –
